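Test compounds were applied to cells in 96-well plates for 48 hours at 5 doses. At the GI50, growth is halved. TGI is the concentration that stops growth completely.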
Tests used:
Experiment in all cases: NCI tumour cell line growth inhibition, 48 h
786-0 renal = tested on: 786-0 renal
A498 renal = tested on: A498 renal
A549 NSCLC = tested on: A549 NSCLC
ACHN renal = tested on: ACHN renal
BT-549 breast = tested on: BT-549 breast
CAKI-1 renal = tested on: CAKI-1 renal
CCRF-CEM leukemia = tested on: CCRF-CEM leukemia
DU-145 prostate = tested on: DU-145 prostate
EKVX NSCLC = tested on: EKVX NSCLC
HCC-2998 colon = tested on: HCC-2998 colon
HCT-15 colon = tested on: HCT-15 colon
HL-60(TB) leukemia = tested on: HL-60(TB) leukemia
HOP-92 NSCLC = tested on: HOP-92 NSCLC
HS 578T breast = tested on: HS 578T breast
HT29 colon = tested on: HT29 colon
IGROV1 ovarian = tested on: IGROV1 ovarian
K-562 leukemia = tested on: K-562 leukemia
KM12 colon = tested on: KM12 colon
M14 melanoma = tested on: M14 melanoma
MALME-3M melanoma = tested on: MALME-3M melanoma
MCF7 breast = tested on: MCF7 breast
MDA-MB-231 breast = tested on: MDA-MB-231 breast
MOLT-4 leukemia = tested on: MOLT-4 leukemia
NCI-H226 lung = tested on: NCI-H226 lung
NCI-H23 lung = tested on: NCI-H23 lung
NCI-H460 lung = tested on: NCI-H460 lung
NCI-H522 lung = tested on: NCI-H522 lung
NCI/ADR-RES ovarian = tested on: NCI/ADR-RES ovarian
OVCAR-3 ovarian = tested on: OVCAR-3 ovarian
OVCAR-4 ovarian = tested on: OVCAR-4 ovarian
OVCAR-5 ovarian = tested on: OVCAR-5 ovarian
PC-3 prostate = tested on: PC-3 prostate
RPMI-8226 leukemia = tested on: RPMI-8226 leukemia
RXF 393 renal = tested on: RXF 393 renal
SF-295 CNS = tested on: SF-295 CNS
SF-539 CNS = tested on: SF-539 CNS
SK-MEL-2 melanoma = tested on: SK-MEL-2 melanoma
SK-MEL-28 melanoma = tested on: SK-MEL-28 melanoma
SK-MEL-5 melanoma = tested on: SK-MEL-5 melanoma
SN12C renal = tested on: SN12C renal
SNB-19 CNS = tested on: SNB-19 CNS
SNB-75 CNS = tested on: SNB-75 CNS
SR leukemia = tested on: SR leukemia
SW-620 colon = tested on: SW-620 colon
TK-10 renal = tested on: TK-10 renal
UACC-257 melanoma = tested on: UACC-257 melanoma
UACC-62 melanoma = tested on: UACC-62 melanoma
UO-31 renal = tested on: UO-31 renal
COLO 205 colon = tested on: COLO 205 colon
HCT-116 colon = tested on: HCT-116 colon
HOP-62 NSCLC = tested on: HOP-62 NSCLC
LOX IMVI melanoma = tested on: LOX IMVI melanoma
OVCAR-8 ovarian = tested on: OVCAR-8 ovarian
SF-268 CNS = tested on: SF-268 CNS
U251 CNS = tested on: U251 CNS

## COc1ccc(/C(C)=N/NC(=O)CSc2nc3ccccc3c(=O)n2CCc2ccc(S(N)(=O)=O)cc2)cc1
786-0 renal
  GI50: 1.79 µM
  TGI: 3.44 µM
A498 renal
  GI50: 2.1 µM
  TGI: 4.12 µM
A549 NSCLC
  GI50: 2.1 µM
  TGI: 4 µM
ACHN renal
  GI50: 1.73 µM
  TGI: 3.27 µM
BT-549 breast
  GI50: 1.66 µM
  TGI: 3.74 µM
CAKI-1 renal
  GI50: 2.07 µM
  TGI: 4.53 µM
CCRF-CEM leukemia
  GI50: 4.44 µM
  TGI: > 100 µM
DU-145 prostate
  GI50: 1.77 µM
  TGI: 3.55 µM
EKVX NSCLC
  GI50: 2.85 µM
  TGI: 12.8 µM
HCC-2998 colon
  GI50: 9.26 µM
  TGI: 28.6 µM
HCT-15 colon
  GI50: 4.7 µM
  TGI: 63.7 µM
HL-60(TB) leukemia
  GI50: 16.6 µM
  TGI: > 100 µM
HOP-92 NSCLC
  GI50: 1.89 µM
  TGI: 4 µM
HS 578T breast
  GI50: 2.24 µM
  TGI: 6.2 µM
HT29 colon
  GI50: 1.95 µM
  TGI: 3.7 µM
IGROV1 ovarian
  GI50: 1.97 µM
  TGI: 3.98 µM
K-562 leukemia
  GI50: 2.87 µM
  TGI: > 100 µM
KM12 colon
  GI50: 2.06 µM
  TGI: 3.96 µM
M14 melanoma
  GI50: 1.91 µM
  TGI: 3.75 µM
MALME-3M melanoma
  GI50: 1.72 µM
  TGI: 3.44 µM
MCF7 breast
  GI50: 2.95 µM
  TGI: 11.2 µM
MDA-MB-231 breast
  GI50: 1.87 µM
  TGI: 3.88 µM
MOLT-4 leukemia
  GI50: 4.2 µM
  TGI: 84.2 µM
NCI-H226 lung
  GI50: 1.95 µM
  TGI: 4.18 µM
NCI-H23 lung
  GI50: 2.3 µM
  TGI: 5.81 µM
NCI-H460 lung
  GI50: 2.03 µM
  TGI: 3.81 µM
NCI-H522 lung
  GI50: 2.26 µM
  TGI: 6.75 µM
NCI/ADR-RES ovarian
  GI50: 11.7 µM
  TGI: > 100 µM
OVCAR-3 ovarian
  GI50: 1.99 µM
  TGI: 3.85 µM
OVCAR-4 ovarian
  GI50: 1.77 µM
  TGI: 3.52 µM
OVCAR-5 ovarian
  GI50: 1.61 µM
  TGI: 3.23 µM
PC-3 prostate
  GI50: 1.98 µM
  TGI: 4.15 µM
RPMI-8226 leukemia
  GI50: 2.02 µM
  TGI: 10.6 µM
RXF 393 renal
  GI50: 1.72 µM
  TGI: 3.29 µM
SF-295 CNS
  GI50: 1.8 µM
  TGI: 3.86 µM
SF-539 CNS
  GI50: 1.69 µM
  TGI: 3.16 µM
SK-MEL-2 melanoma
  GI50: 2.58 µM
  TGI: 6.68 µM
SK-MEL-28 melanoma
  GI50: 1.75 µM
  TGI: 3.3 µM
SK-MEL-5 melanoma
  GI50: 1.64 µM
  TGI: 3.06 µM
SN12C renal
  GI50: 1.89 µM
  TGI: 3.75 µM
SNB-19 CNS
  GI50: 2.27 µM
  TGI: 4.78 µM
SNB-75 CNS
  GI50: 1.81 µM
  TGI: 4.26 µM
SR leukemia
  GI50: 2.52 µM
  TGI: > 100 µM
SW-620 colon
  GI50: 2.28 µM
  TGI: 5.01 µM
TK-10 renal
  GI50: 1.95 µM
  TGI: 3.98 µM
UACC-257 melanoma
  GI50: 2.39 µM
  TGI: 5.57 µM
UACC-62 melanoma
  GI50: 2.2 µM
  TGI: 4.93 µM
UO-31 renal
  GI50: 1.56 µM
  TGI: 3.28 µM

## Nc1c(C(=O)Nc2ccccn2)sc2nc3c(cc12)C(O)CCC3 (configuration not stated)
786-0 renal
  GI50: 1.95 µM
  TGI: > 50 µM
A498 renal
  GI50: 1.53 µM
  TGI: > 50 µM
A549 NSCLC
  GI50: 2.6 µM
  TGI: > 50 µM
ACHN renal
  GI50: 10.7 µM
  TGI: > 50 µM
BT-549 breast
  GI50: 3.47 µM
  TGI: > 50 µM
CAKI-1 renal
  GI50: 2.92 µM
  TGI: > 50 µM
CCRF-CEM leukemia
  GI50: 0.906 µM
  TGI: > 50 µM
COLO 205 colon
  GI50: 2.51 µM
  TGI: > 50 µM
DU-145 prostate
  GI50: 1.94 µM
  TGI: > 50 µM
EKVX NSCLC
  GI50: 3.29 µM
  TGI: > 50 µM
HCC-2998 colon
  GI50: 1.85 µM
  TGI: > 50 µM
HCT-116 colon
  GI50: 1.72 µM
  TGI: > 50 µM
HCT-15 colon
  GI50: 1.69 µM
  TGI: > 50 µM
HL-60(TB) leukemia
  GI50: 0.562 µM
  TGI: > 50 µM
HOP-62 NSCLC
  GI50: 2.9 µM
  TGI: > 50 µM
HS 578T breast
  GI50: 2.07 µM
  TGI: > 50 µM
HT29 colon
  GI50: 1.55 µM
  TGI: > 50 µM
IGROV1 ovarian
  GI50: 3.27 µM
  TGI: > 50 µM
K-562 leukemia
  GI50: 0.319 µM
  TGI: > 50 µM
KM12 colon
  GI50: 1.95 µM
  TGI: > 50 µM
LOX IMVI melanoma
  GI50: 3.09 µM
  TGI: > 50 µM
M14 melanoma
  GI50: 0.949 µM
  TGI: > 50 µM
MALME-3M melanoma
  GI50: 19.3 µM
  TGI: > 50 µM
MCF7 breast
  GI50: 1.02 µM
  TGI: > 50 µM
MDA-MB-231 breast
  GI50: 18.3 µM
  TGI: > 50 µM
MOLT-4 leukemia
  GI50: 2.08 µM
  TGI: > 50 µM
NCI-H226 lung
  GI50: > 50 µM
  TGI: > 50 µM
NCI-H23 lung
  GI50: 3.05 µM
  TGI: > 50 µM
NCI-H460 lung
  GI50: 1.88 µM
  TGI: > 50 µM
NCI-H522 lung
  GI50: 0.815 µM
  TGI: 2.02 µM
NCI/ADR-RES ovarian
  GI50: 1.83 µM
  TGI: > 50 µM
OVCAR-3 ovarian
  GI50: 1.35 µM
  TGI: 4.11 µM
OVCAR-4 ovarian
  GI50: > 50 µM
  TGI: > 50 µM
OVCAR-5 ovarian
  GI50: 2.54 µM
  TGI: > 50 µM
OVCAR-8 ovarian
  GI50: 2.19 µM
  TGI: > 50 µM
PC-3 prostate
  GI50: 1.34 µM
  TGI: > 50 µM
RPMI-8226 leukemia
  GI50: 1.84 µM
  TGI: > 50 µM
RXF 393 renal
  GI50: 1.69 µM
  TGI: > 50 µM
SF-268 CNS
  GI50: 2.94 µM
  TGI: > 50 µM
SF-295 CNS
  GI50: 1.74 µM
  TGI: > 50 µM
SF-539 CNS
  GI50: 1.47 µM
  TGI: > 50 µM
SK-MEL-2 melanoma
  GI50: 1.34 µM
  TGI: > 50 µM
SK-MEL-28 melanoma
  GI50: > 50 µM
  TGI: > 50 µM
SK-MEL-5 melanoma
  GI50: 1.47 µM
  TGI: > 50 µM
SN12C renal
  GI50: 2.57 µM
  TGI: > 50 µM
SNB-19 CNS
  GI50: 2.13 µM
  TGI: > 50 µM
SNB-75 CNS
  GI50: 1.66 µM
  TGI: > 50 µM
SR leukemia
  GI50: 0.179 µM
  TGI: > 50 µM
SW-620 colon
  GI50: 1.62 µM
  TGI: > 50 µM
U251 CNS
  GI50: 1.87 µM
  TGI: > 50 µM
UACC-257 melanoma
  GI50: > 50 µM
  TGI: > 50 µM
UACC-62 melanoma
  GI50: 1.75 µM
  TGI: > 50 µM
UO-31 renal
  GI50: 3.68 µM
  TGI: > 50 µM

— PubChem BioAssay (NCI)
